Assay results: patent US7026305B2, “Anti-HIV agents with dual sites of action” (Meharry Medical College, priority 2003, dated 2006)
Like-named read-outs stand apart in the source and are kept apart here.

Columns and labels:
Format in all cases: cell-based
[1] = tested on: PI-R: A multiple HIV-1 protease inhibitor resistant strain; assay: Anti-HIV activity against multiple protease inhibitor resistant HIV-1 strain (FIG. 1, FIG. 2)
Excerpt: (§1) FIG. 1: Anti-HIV activity of N-[3-β-O-(3′,3′-dimethylsuccinyl)-lup-20(29)-en-28-oyl]-11-aminoundecanoic acid (LH 55-1). PI-R: A multiple HIV-1 protease inhibitor resistant strain. RT-R: A multiple HIV-1 reverse transcriptase inhibitor resistant strain. NL4-3: A T-cell line adapted HIV-1 strain. NL4-3/AZT: The effect of the 1st anti-HIV drug AZT on the NL4-3 virus.
(§2) (PI-R: A multiple HIV-1 protease inhibitor resistant strain. FH-R: DSB resistant HIV-1 strain. FH=DSB).
(§3) FIG. 1 graphically illustrates the anti-HIV activity of Compound 12 (also called compound LH 55-1). In FIG. 1, PI-R represents a multiple HIV-1 protease inhibitor resistant strain of HIV-1. RT-R represents a multiple HIV-1 reverse transcriptase inhibitor resistant strain of HIV-1; NL4-3 represents a T-cell line adapted HIV-1 strain; and NL4-3/AZT represents the effect of AZT on the NL4-3 virus.
(§4) FIG. 2 graphically illustrates that multiple protease inhibitor resistant strains of HIV-1 and DSB resistant HIV-1 are sensitive to Compound 12 (LH55-1). PI-R indicates a multiple HIV-1 protease inhibitor resistant strain of HIV-1, and FH-R indicates a DSB resistant HIV-1 strain (FH=DSB).

[2] = tested on: FH-R: DSB resistant HIV-1 strain; assay: Anti-HIV activity against DSB resistant HIV-1 strain (FIG. 2)
Excerpt: as §2, §4

[3] = tested on: HIV-1 envelope-mediated membrane fusion (COS cells expressing NL4-3 envelope glycoproteins and Hela cells expressing CD4 and CXCR4); assay: Cell-cell fusion assay (HIV-1 entry, FIG. 3)
Description: FIG. 3. LH55-1 (compound 12) and compound 9 inhibit HIV-1 entry. Fusion between COS cells expressing NL4-3 envelope glycoproteins and Hela cells expressing CD4 and CXCR4 were performed in the presence of compound 9, 12 and T20 as indicated in the figure.
To determine the mechanisms of action, the ability of LH55-1 and compound 9 to inhibit HIV-1 entry were analyzed by using a cell-cell fusion assay. Inhibition of HIV-1 envelope-mediated membrane fusion will prevent HIV-1 from entering into the cells. […] T20 is a polypeptide fusion inhibitor recently approved for anti-HIV-1 therapy by FDA, USA.

[4] = tested on: RT-R: A multiple HIV-1 reverse transcriptase inhibitor resistant strain; assay: Anti-HIV activity against multiple reverse transcriptase inhibitor resistant HIV-1 strain (FIG. 1)
Excerpt: as §1, §3

[5] = tested on: HIV-1 maturation (processing of P25 into p24); assay: Inhibition of viral maturation, Western blot of viral particles from ACH-2 cells (FIG. 4)
Excerpt: FIG. 4. LH55-1 (compound 12) inhibits HIV-1 maturation. HIV-1 viral particles produced from ACH-2 cells in the absence (A) or presence (B) of LH55-1. The collected viral samples were lysed and analyzed by using a Western blot. The primary antibody used for the Western blot is a HIV-1 positive human serum. Mw: Molecular weight standards.
P24 is the capsid protein of HIV-1 and is essential for viral infectivity. P25 is the precursor of p24. Inhibition of the processing of P25 into p24 will result in an immature viral particle without infectivity. […] Further studies in our laboratory indicate that the amino acids at the C-terminus of P24 are critical determinant for the drug sensitivity. The anti-HIV-1 maturation activity of LH55-1 is different from that of HIV-1 protease inhibitors since maturation of other HIV-1 gag proteins such as P17 in not affected by LH55-1.

C=C(C)C1CC[C@]2(C(=O)O)CC[C@]3(C)[C@H](CCC4[C@@]5(C)CCC(OC(=O)CC(C)(C)C(=O)O)C(C)(C)[C@@H]5CC[C@]43C)[C@@H]12 (stereo partly shown) [DSB, reference compound]
anti-HIV activity / sensitivity of virus to compound [1]: resistant | sensitivity of virus to compound [2]: resistant

C=C(C)[C@@H]1CC[C@]2(C(=O)NC(CC(C)C)C(=O)O)CC[C@]3(C)[C@H](CCC4[C@@]5(C)CC[C@H](OC(=O)CC(C)(C)C(=O)O)C(C)(C)[C@@H]5CC[C@]43C)[C@@H]12 (stereo partly drawn) [compound 9, N-[3-β-O-(3′,3′-dimethylsuccinyl)-lup-20(29)-en-28-oyl]-L-leucine]
anti-HIV-1 entry activity [3]: exhibited anti-HIV-1 entry activity, albeit at higher concentrations than compound 12

C=C(C)[C@@H]1CC[C@]2(C(=O)NCCCCCCCCCCC(=O)O)CC[C@]3(C)[C@H](CC[C@@H]4[C@@]5(C)CC[C@H](OC(=O)CC(C)(C)C(=O)O)C(C)(C)[C@@H]5CC[C@]43C)[C@@H]12 [compound 12, N-[3-β-O-(3′,3′-dimethylsuccinyl)-lup-20(29)-en-28-oyl]-11-aminoundecanoic acid]
anti-HIV activity / sensitivity of virus to compound [1]: substantial antiviral activity | anti-HIV activity / sensitivity of virus to compound ([1]; listed as Compound 12): sensitive | anti-HIV activity / sensitivity of virus to compound ([1]; listed as LH55-1): very sensitive | anti-HIV activity [4]: substantial antiviral activity | maturation of other HIV-1 gag proteins such as P17 [5]: not affected | processing of P25 into p24 (virion maturation) ([5]; viral particles from ACH-2 cells): accumulation of P25 | anti-HIV-1 entry activity [3]: potent HIV-1 entry inhibitor | concentration blocking HIV-1 envelope-mediated membrane fusion [3]: sub-micromolar | sensitivity of virus to compound [2]: sensitive | sensitivity of virus to compound ([2]; listed as LH55-1): very sensitive
